Measured values from US20210113498A1, “TOPICAL AND TRANSDERMAL DELIVERY OF AN IRON CHELATOR TO PREVENT AND TREAT CHRONIC WOUNDS” (TAUTONA GROUP IP HOLDING COMPANY, L.L.C., priority 2018, published 2021).

What was measured:
[1] = systemic delivery (subcutaneous, intravenous, intramuscular) within approved dose limits; cited from earlier work
[2] = format: in vitro ADME, human
Description: To study the capacity of an intradermal patch comprising an iron chelator, such as DFO, to deliver DFO into human dermis, a vertical Franz Diffusion Cell (FIG. 8) was used to evaluate the DIDP. Full thickness human skin samples obtained under Stanford University IRB approval were mounted between the two compartments of the diffusion cell with the stratum corneum facing the donor compartment. The DIDP was applied and isotonic phosphate buffer solution agitated with a magnetic stirrer and maintained at 37° C. by a circulating water jacket. Every hour, over the course of 15 hours, skin samples were removed, washed with phosphate buffer saline (PBS) and dried with an absorbent towel. The skin samples were frozen at −20° C. and cut with a microtome into 20 μm sections. The samples were analyzed for drug content spectrophotometrically at 560 nm (Shimadzu, Japan) and the relative DFO concentration was determined. Skin biopsies of the fresh full thickness skin samples used in the Franz cell experiment after DIDP application were processed for histology. Intracellular DFO-iron aggregates were made visible using ferrocyanide staining via a modified Prussian blue reaction as described previously. Skin samples were incubated overnight in 7% potassium ferrocyanide dissolved in 3% hydrochloric acid. […]

[3] = test system: HbSS BERK mice; assay: Excisional wound healing in sickle cell mice; format: in vivo, mouse; details: 6 mm full-thickness excisional wounds, daily treatment, mean±s.e.m., in days
Description: The proposed mechanism for healing was investigated using a sickle cell mouse study (Rodrigues et al. publication pending). In this study, transgenic sickle cell mouse model, HbSS-BERK, were used to determine the effectiveness of DIDP. […] They recapitulate human sickle cell disease including hemolysis, reticulocytosis, anemia, extensive organ damage, shortened life span and pain.
Mice. […] These mice simulate human sickle cell disease including hemolysis, reticulocytosis, anemia, extensive organ damage, shortened life span and pain26-28. HbSS-BERK mice were bred and phenotyped for human sickle hemoglobin. Genotyping for the knockout and hemoglobin transgenes was performed. Control mice (wild type) on a C57/Bl6 background [#000664] were also obtained.
DFO delivery device. A transdermal delivery system was used to deliver DFO into the dermal tissue of the mice. […]
Excisional wound healing. Five-month old male HbSS BERK and wild type mice were subjected to a quantitative and reproducible model of excisional wounding using an established protocol described in Galioano et al., Wound Repair Regen 12, 485-492, doi:10.1111/j.1067-1927.2004.12404.x (2004). […]
Wound treatment. […] Wound area was measured using Image J software (NIH). […]

CC(=O)N(O)CCCCCNC(=O)CCC(=O)N(O)CCCCCNC(=O)CCC(=O)N(O)CCCCCN [DFO, deferoxamine]
Toxicity in adult or pediatric patients [1]: no evidence of toxicity | Human skin permeation (stratum corneum / dermal accumulation) [2]: no permeation of the stratum corneum | Time to complete wound closure [3]: 14.5 ± 0.6268
